Assay results from patent EP1640359A2, “Anticonvulsant and central nervous system-active bis(fluorophenyl)alkylamides” (NPS PHARMACEUTICALS, INC., priority 1997, dated 1999).

Tested on: normal anesthetized rats
Test: Flexor reflex in normal anesthetized rats (spasticity model)
Format: in vivo
Conditions: in comparison to baclofen, Figure 3 legend only, no numbers given
Text: Baclofen, diazepam (Valium), and tizanidine are effective on different parameters of spasticity (EMG recordings, H-reflex, the H/M ratio, mono- and polysynaptic reflexes, clonus, hyperreflexia) in these models. The flexor reflex is a polysynaptic response elicited by stimulation of the bottom of the foot and models the withdrawal reflex.

NC(=O)CC(c1cccc(F)c1)c1cccc(F)c1 [Compound 1, 3,3-bis(3-fluorophenyl)propanamide]
reduction in the flexor reflex: reduction in the flexor reflex
